Drawing on BindingDB's records for patent US10030020 (ABIDE THERAPEUTICS, INC., 2018), this text covers IC50 for one molecule.

This assay concerns the target T1, Monoacylglycerol lipase ABHD6 (Mus musculus, UniProt Q8R2Y0).
T1 sequence (Q8R2Y0 whole entry): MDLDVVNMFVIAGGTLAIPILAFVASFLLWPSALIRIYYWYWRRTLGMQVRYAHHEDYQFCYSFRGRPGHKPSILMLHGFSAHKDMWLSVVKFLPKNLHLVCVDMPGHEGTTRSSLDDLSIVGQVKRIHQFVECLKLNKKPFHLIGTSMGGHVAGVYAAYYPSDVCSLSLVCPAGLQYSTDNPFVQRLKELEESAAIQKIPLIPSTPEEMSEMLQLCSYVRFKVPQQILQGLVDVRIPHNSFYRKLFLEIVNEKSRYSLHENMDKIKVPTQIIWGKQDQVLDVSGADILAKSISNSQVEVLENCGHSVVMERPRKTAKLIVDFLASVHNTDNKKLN
The experiment in a line: In Vitro Competitive Activity-Based Protein Profiling. As to the method:
Proteomes (mouse brain membrane fraction or cell lysates) (50 μL, 1.0 mg/mL total protein concentration) were preincubated with varying concentrations of inhibitors at 37° C. After 30 min, FP Rh (1.0 μL, 50 μM in DMSO) was added and the mixture was incubated for another 30 min at 37° C. Reactions were quenched with SDS loading buffer (50 μL-4×) and run on SDS-PAGE.

pIC50: −log10 of the molar value.

On to `O=C(OC(C(F)(F)F)C(F)(F)F)N1CCC2(CCCN2Cc2ccc(OCCN3CCOCC3)cc2)CC1` [US10030020, Example 14], for which the pIC50 (as a rule, the IC50 on a negative log10 scale, so that one unit is a factor of ten) was < 6.00.
